From US20240109893A1, “PREPARATION AND APPLICATION METHOD OF HETEROCYCLIC COMPOUNDS AS KRAS INHIBITOR” (SHANGHAI KECHOW PHARMA, INC., priority 2020, published 2024)

tested on: H358 cells; experiment: Cell activity experiment: activity test of H358 cells (MTT, 5 days); format: cell-based; conditions: 5 days incubation, absorbance 492 nm
Protocol: Example: Cell Activity Experiment
1. Cells: H358 purchased from Shanghai EK-Bioscience Biotechnology Co., Ltd.
2. Reagents: RPMI 1640 medium, Tryple, MTT (5 mg/mL), DMSO, and DPBS.
3. Instruments: an incubator at 37° C. and 5% CO2, a UTRAO microplate reader, a biosafety cabinet, a cell counting plate, and an Optec optical microscope.
4. Experimental consumables: 96-well plate Item No.: 3599, and 96-well round-bottomed dispensing plate.
Experimental Steps of Activity Test of H358 Cells:
1. Plating: Cells in the logarithmic growth phase were digested with Tryple and terminated with a fresh medium, and the cells were counted; and the cell concentration was adjusted to 55555 cells/mL with a fresh medium, wherein 90 μL was added to each well, and those on edges were filled with sterile DPBS.
2. The plate was incubated in the incubator at 37° C. and 5% CO2 for 24 h, so that the cells cover the bottom of the well by about 50%.
3. Drug preparation for experimental group: The drug was dissolved in DMSO to prepare a 20 mmol/L stock solution; the stock solution was further diluted with DMSO to 2 mmol/L, which was serially 3-fold diluted to form an […]-concentration gradient, resulting in a 200× serial compound solution; 10 μL of the serial compound solution was taken and added to 190 μLμL of RPMI1640 medium to obtain a 10× serial compound solution; and 10 μL of the 10× compound solution was taken and added to 90 μL 96-well cell culture plate, with three replicates per grade. The concentration gradient of the compound in the 96-well cell culture plate was […], 1.524158 nM, 4.572474 nM, 13.717420 nM, 41.152260 nM, 123.456800 nM, 370.370400 nM, 1111.111000 nM, 3333.333000 nM, and 10000.000000 nM, with 100 μL per well, and the final concentration of DMSO was 0.5%.
The control group contained the same volume of solvent as the experimental group and was diluted with a complete medium, with 100 μL per well.
4. Incubation was carried out for 5 days in an incubator with 5% CO2 at 37° C.
5. After 5 days, 10 μL of an MTT solution (5 mg/mL) was added to each well, and the culture was continued for 4 h.
6. The culture was terminated, and the culture solution was carefully sucked out of the well.
7. 150 μL of dimethyl sulfoxide (DMSO) was added to each of the null wells in the experimental group and the control group; and after shaking at a medium speed for 10 s, the crystal was fully dissolved, and the optical absorbance value thereof was measured at a wavelength of 492 nm.

| SMILES | IC50 [nM] |
| --- | --- |
| C=C(F)C(=O)N1CCN(c2nc(OCC3(CN4CCCC4)CC3)nc3c(F)c(-c4cccc5c4C4CC4C5)ncc23)C[C@@H]1CC#N (single isomer, unassigned) [Example 868] | 6.6 |
| C=C(F)C(=O)N1CCN(c2nc(OCC3(CN4CCCC4)CC3)nc3c(F)c(-c4cccc5c4C4CC4C5)ccc23)C[C@@H]1CC#N (single isomer, unassigned) [Example 871] | 9 |
| C=CC(=O)N1CCN(c2nc(OC[C@@H]3CCCN3C)nc3c(F)c(-c4cccc5c4CC4CC54)ncc23)C[C@@H]1CC#N (single isomer, unassigned) [Example 874] | 429 |
| C=CC(=O)N1CCN(c2nc(OC[C@@H]3CCCN3C)nc3c(F)c(-c4cccc5c4CC4CC54)ccc23)C[C@@H]1CC#N (single isomer, unassigned) [Example 882] | 550 |
| C=C(F)C(=O)N1CCN(c2nc(OC[C@@H]3CCCN3C)nc3c(F)c(-c4cccc5c4CC4CC54)ccc23)C[C@@H]1CC#N (single isomer, unassigned) [Example 884] | 1260 |
| C=C(F)C(=O)N1CCN(c2nc(OC[C@@]34CCCN3C[C@H](F)C4)nc3c(F)c(-c4cccc5c4CC4CC54)ccc23)C[C@@H]1CC#N (single isomer, unassigned) [Example 888] | 292 |
| C=C(F)C(=O)N1CCN(c2nc(OC[C@@]34CCCN3C[C@H](F)C4)nc3c(OC4CC4)c(-c4cccc5c4CC4CC54)c(Cl)cc23)C[C@@H]1CC#N (single isomer, unassigned) [Example 918] | 40 |
| C=C(F)C(=O)N1CCN(c2nc(OC[C@@]34CCCN3C[C@H](F)C4)nc3c(OC4CC4)c(-c4cccc5c4CC4CC54)c(Cl)cc23)C[C@@H]1CC#N (single isomer, unassigned) [Example 919] | 1680 |

More lines, now with the values ahead:

| IC50 [nM] | SMILES |
| --- | --- |
| 9.5 | C=CC(=O)N1CCN(c2nc(OC[C@@]34CCCN3C[C@H](F)C4)nc3c(F)c(-c4cccc5c4CC4CC54)ncc23)C[C@@H]1CC#N (single isomer, unassigned) [Example 877] |
| 433 | C=C(F)C(=O)N1CCN(c2nc(OC[C@@]34CCCN3C[C@H](F)C4)nc3c(F)c(-c4cccc5c4CC4CC54)ncc23)C[C@@H]1CC#N (single isomer, unassigned) [Example 880] |

same assay, conditions: Homo sapiens, NCI-H358, 120 h, 5 days incubation, absorbance 492 nm

| SMILES | IC50 [nM] |
| --- | --- |
| C=C(F)C(=O)N1CCN(c2nc(OCC3(CN4CCCC4)CC3)nc3c(F)c(-c4cccc5c4C4CC4C5)ncc23)C[C@@H]1CC#N (single isomer, unassigned) [Example 867] | 5.9 |
| C=C(F)C(=O)N1CCN(c2nc(OCC3(CN4CCCC4)CC3)nc3c(F)c(-c4cccc5c4C4CC4C5)ccc23)C[C@@H]1CC#N (single isomer, unassigned) [Example 870] | 7.2 |
| C=C(F)C(=O)N1CCN(c2nc(OC[C@@H]3C[C@@H](F)CN3C)nc3c(F)c(-c4cccc5c4CCCC5)ncc23)C[C@@H]1CC#N [Example 6] | 90 |
| C=CC(=O)N1CC[C@@H]2[C@H]1CN2c1nc(OC[C@@H]2CCCN2C)nc2c(F)c(-c3cccc4c3CCCC4)ncc12 [Example 9, 1-((1R,5R)-6-(8-fluoro-2-(((S)-1-methylpyrrolidin-2-yl)methoxy)-7-(5,6,7,8-tetrahydronaphthalen-1-yl)pyridino[4,3-d]pyrimidin-4-yl)-2,6-diazabicyclo[3.2.0]hept-2-yl)prop-2-en-1-one] | 10 |
| C=CC(=O)N1CC[C@@H]2[C@H]1CN2c1nc(OC[C@@H]2C[C@@H](F)CN2C)nc2c(F)c(-c3cccc4c3CCCC4)ncc12 [Example 11] | 26 |
| C=C(F)C(=O)N1CC[C@@H]2[C@H]1CN2c1nc(OC[C@@H]2C[C@@H](F)CN2C)nc2c(F)c(-c3cccc4c3CCCC4)ncc12 [Example 12] | 80 |
| C=C(F)C(=O)N1CC[C@@H]2[C@H]1CN2c1nc(OC[C@@]23CCCN2C[C@H](F)C3)nc2c(F)c(-c3cccc4c3CCCC4)ncc12 [Example 16] | 5 |

Results, then the molecule that gave them:

| IC50 [nM] | SMILES |
| --- | --- |
| 236 | C=CC(=O)N1CCN(c2nc(OC[C@@]34CCCN3C[C@H](F)C4)nc3c(F)c(-c4cccc5c4CC4CC54)ncc23)C[C@@H]1CC#N (single isomer, unassigned) [Example 878] |
| 70 | C=C(F)C(=O)N1CCN(c2nc(OC[C@@H]3CCCN3C)nc3c(F)c(-c4cccc5c4CCCC5)ncc23)C[C@@H]1CC#N [Example 4, 2-((S)-4-(8-fluoro-2-(((S)-1-methylpyrrolidin-2-yl)methoxy)-7-(5,6,7,8-tetrahydronaphthalen-1-yl)pyridino[4,3-d]pyrimidin-4-yl)-1-(2-fluoroacryloyl)piperazin-2-yl)acetonitrile] |
| 20 | C=CC(=O)N1CCN(c2nc(OC[C@@H]3C[C@@H](F)CN3C)nc3c(F)c(-c4cccc5c4CCCC5)ncc23)C[C@@H]1CC#N [Example 5, 2-((S)-1-acryloyl-4-(8-fluoro-2-(((2S,4R)-4-fluoro-1-methylpyrrolidin-2-yl)methoxy)-7-(5,6,7,8-tetrahydronaphthalen-1-yl)pyridino[4,3-d]pyrimidin-4-yl)piperazin-2-yl)acetonitrile] |
| 0.07 | C=CC(=O)N1CCN(c2nc(OC[C@@]34CCCN3C[C@H](F)C4)nc3c(F)c(-c4cccc5c4CCCC5)ncc23)C[C@@H]1CC#N [Example 7, 2-((S)-1-acryloyl-4-(8-fluoro-2-(((2R,7aS)-2-fluorotetrahydro-1H-pyrrolizin-7a(5H)-yl)methoxy)-7-(5,6,7,8-tetrahydronaphthalen-1-yl)pyridino[4,3-d]pyrimidin-4-yl)piperazin-2-yl)acetonitrile] |
| 0.64 | C=C(F)C(=O)N1CCN(c2nc(OC[C@@]34CCCN3C[C@H](F)C4)nc3c(F)c(-c4cccc5c4CCCC5)ncc23)C[C@@H]1CC#N [Example 8, 2-((S)-4-(8-fluoro-2-(((2R,7aS)-2-fluorotetrahydro-1H-pyrrolizin-7a(5H)-yl)methoxy)-7-(5,6,7,8-tetrahydronaphthalen-1-yl)pyridino[4,3-d]pyrimidin-4-yl)-1-(2-fluoroacryloyl)piperazin-2-yl)acetonitrile] |
| 5 | C=CC(=O)N1CC[C@@H]2[C@H]1CN2c1nc(OCC23CCCN2CCC3)nc2c(F)c(-c3cccc4c3CCCC4)ncc12 [Example 13, 1-((1R,5R)-6-(8-fluoro-2-((tetrahydro-1H-pyrrolizin-7a(5H)-yl)methoxy)-7-(5,6,7,8-tetrahydronaphthalen-1-yl)pyridino[4,3-d]pyrimidin-4-yl)-2,6-diazabicyclo[3.2.0]hept-2-yl)prop-2-en-1-one] |
| 30 | C=C(F)C(=O)N1CC[C@@H]2[C@H]1CN2c1nc(OCC23CCCN2CCC3)nc2c(F)c(-c3cccc4c3CCCC4)ncc12 [Example 14, 2-fluoro-1-((1R,5R)-6-(8-fluoro-2-((tetrahydro-1H-pyrrolizin-7a(5H)-yl)methoxy)-7-(5,6,7,8-tetrahydronaphthalen-1-yl)pyridino[4,3-d]pyrimidin-4-yl)-2,6-diazabicyclo[3.2.0]hept-2-yl)prop-2-en-1-one] |
| 3 | C=CC(=O)N1CC[C@@H]2[C@H]1CN2c1nc(OC[C@@]23CCCN2C[C@H](F)C3)nc2c(F)c(-c3cccc4c3CCCC4)ncc12 [Example 15] |
| 100 | C=C(F)C(=O)N1CCN(c2nc(OC[C@@H]3CCCN3C)nc3c(F)c(-c4ccc(F)c5c4CCCC5)ncc23)C[C@@H]1CC#N [Example 18] |
| 35 | C=CC(=O)N1CCN(c2nc(OC[C@@H]3C[C@@H](F)CN3C)nc3c(F)c(-c4ccc(F)c5c4CCCC5)ncc23)C[C@@H]1CC#N [Example 19] |
| 120 | C=C(F)C(=O)N1CCN(c2nc(OC[C@@H]3C[C@@H](F)CN3C)nc3c(F)c(-c4ccc(F)c5c4CCCC5)ncc23)C[C@@H]1CC#N [Example 20] |
| 7 | C=CC(=O)N1CCN(c2nc(OCC34CCCN3CCC4)nc3c(F)c(-c4ccc(F)c5c4CCCC5)ncc23)C[C@@H]1CC#N [Example 21] |
| 20 | C=C(F)C(=O)N1CCN(c2nc(OCC34CCCN3CCC4)nc3c(F)c(-c4ccc(F)c5c4CCCC5)ncc23)C[C@@H]1CC#N [Example 22] |
| 3 | C=CC(=O)N1CCN(c2nc(OC[C@@]34CCCN3C[C@H](F)C4)nc3c(F)c(-c4ccc(F)c5c4CCCC5)ncc23)C[C@@H]1CC#N [Example 23] |
| 15 | C=C(F)C(=O)N1CCN(c2nc(OC[C@@]34CCCN3C[C@H](F)C4)nc3c(F)c(-c4ccc(F)c5c4CCCC5)ncc23)C[C@@H]1CC#N [Example 24] |
| 10 | C=CC(=O)N1CC[C@@H]2[C@H]1CN2c1nc(OC[C@@H]2CCCN2C)nc2c(F)c(-c3ccc(F)c4c3CCCC4)ncc12 [Example 25] |
